The source of these data is patent US20260022142A1, “MACROCYCLIC IMMUNOMODULATORS” (Bristol-Myers Squibb Company, priority 2022, published 2026).

Numbered stars: 1 amine (or outer) side, 2 acyl side, 3 side chain; on linkers, the order of the positions; unused ones are H or OH. Bridge positions count the residues as written; N and C are the ends. Square brackets hold non-standard residues; d marks the D form. Peptide text beside a SMILES is read from it. * marks the point of attachment. Phe(3-CF3) = N[C@@H](Cc1cccc(C(F)(F)F)c1)C(=O)O; Ala(morpholin-4-yl) = N[C@@H](CN1CCOCC1)C(=O)O; Phe(4-COOH) = N[C@@H](Cc1ccc(C(=O)O)cc1)C(=O)O; Bip = N[C@@H](Cc1ccc(-c2ccccc2)cc1)C(=O)O; Tyr(3-F) = N[C@@H](Cc1ccc(O)c(F)c1)C(=O)O; NH(CH2)14COOH = O=C(O)CCCCCCCCCCCCCCN*; Phe(3-Me) = Cc1cccc(C[C@H](N)C(=O)O)c1; βAsp = O=C(O)[C@H](CC(=O)[*:2])N[*:1]; NH(CH2)12COOH = O=C(O)CCCCCCCCCCCCN*; Val(3-OH) = CC(C)(O)[C@H](N)C(=O)O; hArg = N=C(N)NCCCC[C@H](N)C(=O)O; Cha = N[C@@H](CC1CCCCC1)C(=O)O; Carboxymethyl = O=C(O)C*; Nle = CCCC[C@H](N)C(=O)O; Orn = NCCC[C@H](N)C(=O)O; Aun = NCCCCCCCCCCC(=O)O; Dab = NCC[C@H](N)C(=O)O; Dap = NC[C@H](N)C(=O)O; AEEA = NCCOCCOCC(=O)O; Piv = CC(C)(C)C(=O)*

As usually defined, the IC50 is the concentration that inhibits the measured activity by half.

For this assay, the target named is T1, PD-1/PD-L1 interaction (PE-labeled human PD-L1-Ig binding to Jurkat cell line over-expressing human PD-1) (Homo sapiens, UniProt Q15116).
T1 construct: expressed in transfected cells; host or cells: Jurkat
T1 sequence (Q15116 25-288): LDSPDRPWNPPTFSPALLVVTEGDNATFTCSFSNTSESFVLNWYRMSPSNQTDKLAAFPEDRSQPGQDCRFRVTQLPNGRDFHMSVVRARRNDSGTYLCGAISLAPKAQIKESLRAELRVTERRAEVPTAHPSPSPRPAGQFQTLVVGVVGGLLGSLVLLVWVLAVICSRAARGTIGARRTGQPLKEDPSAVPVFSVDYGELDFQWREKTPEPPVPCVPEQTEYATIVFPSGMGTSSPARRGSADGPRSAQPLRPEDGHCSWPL
The assay is described as follows: Jurkat-PD-1 Cell Binding High-Content Screening Assay (CBA). Format: cell-based. Particulars: Jurkat cell line over-expressing human PD-1; PE-labeled PD-L1-Ig 20 nM final; read-out: Jurkat hPD1-PDL1 IC50. In a few lines:
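Jurkat cells stably over-expressing human PD-1 were seeded in DMEM with 10% fetal calf serum and pre-incubated with compound for 2 h at 37° C. PE-labeled human PD-L1-Ig was then added at 20 nM final for 1 hour, after which cells were fixed with paraformaldehyde, Hoechst-stained and imaged by high-content microscopy.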
In the case of `Cc1cccc(C[C@@H]2NC(=O)[C@H](CC(=O)O)NC(=O)[C@H](Cc3ccc(OCC(=O)O)cc3)NC(=O)[C@H](CN)NC(=O)CSC[C@@H](C(=O)N[C@@H](CCCCN)C(=O)NCCCCCCCCCCC(=O)O)NC(=O)[C@H](CN)NC(=O)[C@H](C(C)C)NC(=O)[C@H](CC3CCCCC3)NC(=O)[C@H](CCN)NC(=O)[C@@H](CC(C)C)NC(=O)[C@H](CCCN)NC(=O)[C@H](C(C)C)NC(=O)[C@H](Cc3ccc(-c4ccccc4)cc3)NC(=O)[C@H](C(C)C)NC2=O)c1` [Compound 2534] ({CH2CO}-[Dap]Y(Carboxymethyl)D[Phe(3-Me)]V[Bip]V[Orn][dL][Dab][Cha]V[Dap]CK[Aun]-OH; thioether N-14), the half-inhibitory concentration (IC50) was found to be 6.3 nM. `CC(C)C[C@H]1NC(=O)[C@H](CCCN)NC(=O)[C@H](C(C)C)NC(=O)[C@H](Cc2ccc(-c3ccccc3)cc2)NC(=O)[C@H](C(C)C)NC(=O)[C@H](Cc2c[nH]c3ccccc23)NC(=O)[C@H](CC(=O)O)NC(=O)[C@H](Cc2ccc(OCC(=O)O)cc2)NC(=O)[C@H](CCCCNC(=N)N)NC(=O)CSC[C@@H](C(=O)N[C@@H](CCN)C(=O)NCCOCCOCC(=O)NCCCCCCCCCCC(=O)O)NC(=O)[C@H](CCCCN)NC(=O)[C@H](C(C)C)NC(=O)[C@H](CC2CCCCC2)NC(=O)[C@H](CC(N)=O)NC1=O` [Compound 3217] ({CH2CO}-[hArg]Y(Carboxymethyl)DWV[Bip]V[Orn][dL]N[Cha]VKC[Dab][AEEA][Aun]-OH; thioether N-14): the IC50 was determined as 17.9 nM. In the case of `Cc1cccc(C[C@@H]2NC(=O)[C@H](CC(=O)O)NC(=O)[C@H](Cc3ccc(OCC(=O)O)cc3)NC(=O)[C@H](CN)NC(=O)CSC[C@@H](C(=O)N[C@@H](CCN)C(=O)NCCOCCOCC(=O)NCCCCCCCCCCC(=O)O)NC(=O)[C@H](CCCN)NC(=O)[C@H](C(C)C)NC(=O)[C@H](CC3CCCCC3)NC(=O)[C@H](CCN)NC(=O)[C@@H](CC(C)C)NC(=O)[C@H](CCCN)NC(=O)[C@H](Cc3ccc(OCC(=O)O)cc3)NC(=O)[C@H](Cc3ccc(-c4ccccc4)cc3)NC(=O)[C@H](Cc3ccc(O)cc3)NC2=O)c1` [Compound 2859] ({CH2CO}-[Dap]Y(Carboxymethyl)D[Phe(3-Me)]Y[Bip]Y(Carboxymethyl)[Orn][dL][Dab][Cha]V[Orn]C[Dab][AEEA][Aun]-OH; thioether N-14) it was 7.8 nM; in that of `CCCC[C@@H]1NC(=O)[C@H](C(C)C)NC(=O)[C@H](CC2CCCCC2)NC(=O)[C@H](CCN)NC(=O)[C@@H](CC(C)C)NC(=O)[C@H](CCCN)NC(=O)[C@H](Cc2ccc(OCC(=O)O)cc2)NC(=O)[C@H](Cc2ccc(-c3ccccc3)cc2)NC(=O)[C@H](Cc2ccc(OCC(=O)O)cc2)NC(=O)[C@H](Cc2cccc(C(F)(F)F)c2)NC(=O)[C@H](CC(=O)O)NC(=O)[C@H](Cc2ccc(C(=O)O)cc2)NC(=O)[C@H](CCN)NC(=O)CSC[C@@H](C(=O)N[C@@H](CCN)C(=O)NCCCCCCCCCCC(=O)O)NC1=O` [Compound 3825] ({CH2CO}-[Dab][Phe(4-COOH)]D[Phe(3-CF3)]Y(Carboxymethyl)[Bip]Y(Carboxymethyl)[Orn][dL][Dab][Cha]V[Nle]C[Dab][Aun]-OH; thioether N-14), 19.7 nM; in that of `Cc1cccc(C[C@@H]2NC(=O)[C@H](CC(=O)O)NC(=O)[C@H](Cc3ccc(OCC(=O)O)cc3)NC(=O)[C@H](CCCNC(=N)N)NC(=O)CSC[C@@H](C(=O)N[C@@H](CCN)C(=O)NCCCCCCCCCCC(=O)O)NC(=O)[C@H](CCNC(=O)C(C)(C)C)NC(=O)[C@H](C(C)C)NC(=O)[C@H](CC3CCCCC3)NC(=O)[C@H](CCN)NC(=O)[C@@H](CC(C)C)NC(=O)[C@H](CCCN)NC(=O)[C@H](Cc3ccc(OCC(=O)O)cc3)NC(=O)[C@H](Cc3ccc(-c4ccccc4)cc3)NC(=O)[C@H](Cc3ccc(O)cc3)NC2=O)c1` [Compound 2119] ({CH2CO}-RY(Carboxymethyl)D[Phe(3-Me)]Y[Bip]Y(Carboxymethyl)[Orn][dL][Dab][Cha]V[Dab](Piv)C[Dab][Aun]-OH; thioether N-14), 10.3 nM. In the case of `Cc1cccc(C[C@@H]2NC(=O)[C@H](CC(=O)O)NC(=O)[C@H](Cc3ccc(OCC(=O)O)cc3)NC(=O)[C@H](CN)NC(=O)CSC[C@@H](C(=O)NCCOCCOCC(=O)N[C@@H](CCN)C(=O)NCCCCCCCCCCC(=O)O)NC(=O)[C@H](CCCN)NC(=O)[C@H](C(C)C)NC(=O)[C@H](CC3CCCCC3)NC(=O)[C@H](CCN)NC(=O)[C@@H](CC(C)C)NC(=O)[C@H](CCCN)NC(=O)[C@H](CCC(=O)O)NC(=O)[C@H](Cc3ccc(-c4ccccc4)cc3)NC(=O)[C@H](C(C)C)NC2=O)c1` [Compound 2659] ({CH2CO}-[Dap]Y(Carboxymethyl)D[Phe(3-Me)]V[Bip]E[Orn][dL][Dab][Cha]V[Orn]C[AEEA][Dab][Aun]-OH; thioether N-14) it was 11.5 nM. Turning to `CC(C)C[C@H]1NC(=O)[C@H](CCCN)NC(=O)[C@H](Cc2ccc(C(=O)O)cc2)NC(=O)[C@H](Cc2ccc(-c3ccccc3)cc2)NC(=O)[C@H](Cc2ccc(C(=O)O)cc2)NC(=O)[C@H](Cc2cccc(C(F)(F)F)c2)NC(=O)[C@H](CC(=O)O)NC(=O)[C@H](Cc2ccc(OCC(=O)O)cc2)NC(=O)[C@H](CN2CCOCC2)NC(=O)CSC[C@@H](C(=O)N[C@@H](CCN)C(=O)NCCCCCCCCCCCCCCC(=O)O)NC(=O)[C@H](CC(=O)O)NC(=O)[C@H](C(C)(C)O)NC(=O)[C@H](CC2CCCCC2)NC(=O)[C@H](CCN)NC1=O` [Compound 2949] ({CH2CO}-[Ala(morpholin-4-yl)]Y(Carboxymethyl)D[Phe(3-CF3)][Phe(4-COOH)][Bip][Phe(4-COOH)][Orn][dL][Dab][Cha][Val(3-OH)]DC[Dab]-{NH(CH2)14COOH}; thioether N-14), the IC50 was determined as 305 nM. In the case of `CC(C)C[C@H]1NC(=O)[C@H](CCCN)NC(=O)[C@H](Cc2ccc(O)cc2)NC(=O)[C@H](Cc2ccc(-c3ccccc3)cc2)NC(=O)[C@H](Cc2ccc(O)cc2)NC(=O)[C@H](Cc2ccc(O)c(F)c2)NC(=O)[C@H](CC(=O)O)NC(=O)[C@H](Cc2ccc(OCC(=O)O)cc2)NC(=O)[C@H](CCCNC(=N)N)NC(=O)CSC[C@@H](C(=O)N[C@@H](CCN)C(=O)NCCCCCCCCCCC(=O)O)NC(=O)[C@H]([C@@H](C)O)NC(=O)[C@H](C(C)C)NC(=O)[C@H](CC2CCCCC2)NC(=O)[C@H](CCN)NC1=O` [Compound 2103] ({CH2CO}-RY(Carboxymethyl)D[Tyr(3-F)]Y[Bip]Y[Orn][dL][Dab][Cha]VTC[Dab][Aun]-OH; thioether N-14) it was 69.9 nM; in that of `CC(C)C[C@H]1NC(=O)[C@H](CCCN)NC(=O)[C@H](C(C)C)NC(=O)[C@H](Cc2ccc(-c3ccccc3)cc2)NC(=O)[C@H](C(C)C)NC(=O)[C@H](Cc2c[nH]c3ccccc23)NC(=O)[C@H](CC(=O)O)NC(=O)[C@H](Cc2ccc(OCC(=O)O)cc2)NC(=O)[C@H](CCCNC(=N)N)NC(=O)CSC[C@@H](C(=O)N[C@@H](CCCN)C(=O)NCCCCCCCCCCC(=O)O)NC(=O)[C@H](CCCN)NC(=O)[C@H](C(C)C)NC(=O)[C@H](CC2CCCCC2)NC(=O)[C@H](CCN)NC1=O` [Compound 3346] ({CH2CO}-RY(Carboxymethyl)DWV[Bip]V[Orn][dL][Dab][Cha]V[Orn]C[Orn][Aun]-OH; thioether N-14), 10.9 nM; in that of `CC(C)C[C@H]1NC(=O)[C@H](CCCN)NC(=O)[C@H](Cc2ccc(C(=O)O)cc2)NC(=O)[C@H](Cc2ccc(-c3ccccc3)cc2)NC(=O)[C@H](Cc2ccc(C(=O)O)cc2)NC(=O)[C@H](Cc2cccc(C(F)(F)F)c2)NC(=O)[C@H](CC(=O)O)NC(=O)[C@H](Cc2ccc(OCC(=O)O)cc2)NC(=O)[C@H](C)NC(=O)CSC[C@@H](C(=O)N[C@@H](CCN)C(=O)NCCOCCOCC(=O)N[C@@H](CC(=O)NCCOCCOCC(=O)NCCCCCCCCCCCCC(=O)O)C(=O)O)NC(=O)[C@H](CO)NC(=O)[C@H](C(C)(C)O)NC(=O)[C@H](CC2CCCCC2)NC(=O)[C@H](CCN)NC1=O` [Compound 2935] ({CH2CO}-AY(Carboxymethyl)D[Phe(3-CF3)][Phe(4-COOH)][Bip][Phe(4-COOH)][Orn][dL][Dab][Cha][Val(3-OH)]SC[Dab][AEEA][βAsp][AEEA]-{NH(CH2)12COOH}; thioether N-14), 42.4 nM. The result for `CC(C)C[C@H]1NC(=O)[C@H](CCCN)NC(=O)[C@H](Cc2ccc(C(=O)O)cc2)NC(=O)[C@H](Cc2ccc(-c3ccccc3)cc2)NC(=O)[C@H](Cc2ccc(C(=O)O)cc2)NC(=O)[C@H](Cc2cccc(C(F)(F)F)c2)NC(=O)[C@H](CC(=O)O)NC(=O)[C@H](Cc2ccc(OCC(=O)O)cc2)NC(=O)[C@H](CC2CCCCC2)NC(=O)CSC[C@@H](C(=O)N[C@@H](CCN)C(=O)NCCOCCOCC(=O)NCCOCCOCC(=O)NCCCCCCCCCCCCCCC(=O)O)NC(=O)[C@H](CO)NC(=O)[C@H](C(C)(C)O)NC(=O)[C@H](CC2CCCCC2)NC(=O)[C@H](CCN)NC1=O` [Compound 3830] ({CH2CO}-[Cha]Y(Carboxymethyl)D[Phe(3-CF3)][Phe(4-COOH)][Bip][Phe(4-COOH)][Orn][dL][Dab][Cha][Val(3-OH)]SC[Dab][AEEA][AEEA]-{NH(CH2)14COOH}; thioether N-14) reads 200 nM; that for `CC(C)C[C@H]1NC(=O)[C@H](CCCN)NC(=O)[C@H](Cc2ccc(C(=O)O)cc2)NC(=O)[C@H](Cc2ccc(-c3ccccc3)cc2)NC(=O)[C@H](Cc2ccc(C(=O)O)cc2)NC(=O)[C@H](Cc2cccc(C(F)(F)F)c2)NC(=O)[C@H](CC(=O)O)NC(=O)[C@H](Cc2ccc(OCC(=O)O)cc2)NC(=O)[C@H](Cc2cnc[nH]2)NC(=O)CSC[C@@H](C(=O)N[C@@H](CCN)C(=O)NCCOCCOCC(=O)N[C@@H](CC(=O)N[C@@H](CC(=O)O)C(=O)NCCCCCCCCCCCCCCC(=O)O)C(=O)O)NC(=O)[C@H](CCC(=O)O)NC(=O)[C@H](C(C)(C)O)NC(=O)[C@H](CC2CCCCC2)NC(=O)[C@H](CCN)NC1=O` [Compound 3889] ({CH2CO}-HY(Carboxymethyl)D[Phe(3-CF3)][Phe(4-COOH)][Bip][Phe(4-COOH)][Orn][dL][Dab][Cha][Val(3-OH)]EC[Dab][AEEA][βAsp]D-{NH(CH2)14COOH}; thioether N-14), 272 nM.
